Among the data in ChEMBL document CHEMBL1147535, “Biaryl amide glucagon receptor antagonists” (Bioorg Med Chem Lett, 2004) are bioavailability, Ki and Reduction values, retold here.

Tested on in the first data set: not listed separately
In words: Oral bioavailability. In kind it is ADME, organism-based. As to conditions: eutheria, in vivo.
For the molecule `CC(C)(C)c1ccc(C(Cc2ccc(C(=O)NCCC(=O)O)cc2)C(=O)Nc2ccc(-c3cc4ccccc4o3)cc2)cc1` (stereo not given), the bioavailability was less than 5%.

A further data set concerns the target Adenylate cyclase. In words: In vitro inhibitory activity against glucagon induced monkey adenylate cyclase. The class given is protein assay, Cercopithecidae.
Details: not given
`CC(C)(C)c1ccc(C(Cc2ccc(C(=O)NCCC(=O)O)cc2)C(=O)Nc2ccc(-c3cc4ccccc4o3)cc2)cc1` (stereo not given) returned a Ki of 69 nM.

The next data set concerns the target Adenylate cyclase. In words: In vitro inhibitory activity against glucagon induced human adenylate cyclase.
Details: not given
The class given is protein assay.
For the molecule `CCCCCCC(Cc1ccc(C(=O)NCCC(=O)O)cc1)C(=O)Nc1ccc(-c2cc3ccccc3o2)cc1` (stereo not given), the Ki is 20 nM.
Still for that read-out and setting: then `CC(C)(C)c1ccc(C(Cc2ccc(C(=O)NCCC(=O)O)cc2)C(=O)Nc2ccc(-c3cc4ccccc4o3)cc2)cc1` (stereo not given), with 29 nM.
On to `CC(C)(C)c1ccc(C(Oc2ccc(C(=O)NCC(F)C(=O)O)cc2)C(=O)Nc2ccc(-c3ccccc3)cc2)cc1` (stereo not given), for which the Ki is more than 2000 nM.
The molecule `CCCCCCC(Oc1ccc(C(=O)NCCC(=O)O)cc1)C(=O)Nc1ccc(-c2cc3ccccc3o2)cc1` (stereo not given) displayed a Ki of 17 nM.
In the case of `CC(C)(C)c1ccc(C(Cc2ccc(C(=O)NCCC(=O)O)cc2)C(=O)Nc2cnc3ccccc3c2)cc1` (stereo not given), the Ki worked out at 610 nM.
On the same count and under the same terms, then `CC(C)(C)c1ccc(C(Cc2ccc(C(=O)NCCC(=O)O)cc2)C(=O)Nc2ccc(-c3ccc(Cl)cc3Cl)cc2)cc1` (stereo not given), with 33 nM; and `CC(C)(C)c1ccc(C(Cc2ccc(C(=O)NCCC(=O)O)cc2)C(=O)Nc2ccc(OC(F)(F)F)cc2)cc1` (stereo not given), with 110 nM; and `CC(C)(C)c1ccc(C(Oc2ccc(C(=O)NCC(O)C(=O)O)cc2)C(=O)Nc2ccc(-c3ccccc3)cc2)cc1` (stereo not given), with more than 2000 nM.
Still for that read-out and setting: then `CC(C)(C)[C@H]1CC[C@H](N(Cc2ccc(C(=O)NCCC(=O)O)cc2)C(=O)Nc2ccc(OC(F)(F)F)cc2)CC1`, with 254 nM; and `CC(C)(C)c1ccc(C(Cc2ccc(C(=O)NCCC(=O)O)cc2)C(=O)Nc2ccc(COC(F)(F)F)cc2)cc1` (stereo not given), with more than 2000 nM.
Molecule `CCc1cccc(NC(=O)C(Cc2ccc(C(=O)NCCC(=O)O)cc2)c2ccc(C(C)(C)C)cc2)c1` (stereo not given) showed a Ki of more than 2000 nM.
Still for that read-out and setting: then `CCc1ccc(NC(=O)C(Cc2ccc(C(=O)NCCC(=O)O)cc2)c2ccc(C(C)(C)C)cc2)cc1` (stereo not given), with more than 2000 nM.
`Cc1ccc(N2CCN(C(=O)C(Cc3ccc(C(=O)NCCC(=O)O)cc3)c3ccc(C(C)(C)C)cc3)CC2)cc1` (stereo not given) came in with a Ki of more than 2000 nM.
`CC(C)(C)c1ccc(C(Cc2ccc(C(=O)NCCC(=O)O)cc2)C(=O)Nc2ccc(-c3ccccc3)cc2)cc1` (stereo not given) registered a Ki of 300 nM.
On to `CC(C)(C)c1ccc(C(Cc2ccc(C(=O)NCCC(=O)O)cc2)C(=O)Nc2ccc(N3CCCCC3)cc2)cc1` (stereo not given), for which the Ki is more than 2000 nM.
The same measure, in the same setting: in the case of `CCN1CCN(C(=O)C(Cc2ccc(C(=O)NCCC(=O)O)cc2)c2ccc(C(C)(C)C)cc2)CC1` (stereo not given) it was more than 2000 nM; in that of `CC(C)(C)c1ccc(C(Oc2ccc(C(=O)NCCC(=O)O)cc2)C(=O)Nc2ccc(-c3ccccc3)cc2)cc1` (stereo not given), 144 nM; in that of `CC(C)(C)c1ccc(C(Oc2ccc(C(=O)Nc3nn[nH]n3)cc2)C(=O)Nc2ccc(-c3ccccc3)cc2)cc1` (stereo not given), 317 nM.
`CC(C)(C)c1ccc(C(Cc2ccc(C(=O)NCCC(=O)O)cc2)C(=O)Nc2ccc(CO)cc2)cc1` (stereo not given) had a Ki of 1000 nM.
`CC(C)(C)c1ccc(C(Cc2ccc(C(=O)NCCC(=O)O)cc2)C(=O)Nc2ccc(-n3cccn3)cc2)cc1` (stereo not given) gave a Ki of more than 2000 nM.
Consider `CCCCCCC(Oc1ccc(C(=O)NCCC(=O)O)cc1)C(=O)Nc1ccc(-c2ccc(Cl)cc2Cl)cc1` (stereo not given), for which the Ki is 14 nM.

In another data set the target is Glucagon receptor (Homo sapiens, UniProt P47871). In words: In vitro binding affinity against human glucagon receptor (h-GlucR) was determined.
Sequence of Glucagon receptor (P47871 whole entry): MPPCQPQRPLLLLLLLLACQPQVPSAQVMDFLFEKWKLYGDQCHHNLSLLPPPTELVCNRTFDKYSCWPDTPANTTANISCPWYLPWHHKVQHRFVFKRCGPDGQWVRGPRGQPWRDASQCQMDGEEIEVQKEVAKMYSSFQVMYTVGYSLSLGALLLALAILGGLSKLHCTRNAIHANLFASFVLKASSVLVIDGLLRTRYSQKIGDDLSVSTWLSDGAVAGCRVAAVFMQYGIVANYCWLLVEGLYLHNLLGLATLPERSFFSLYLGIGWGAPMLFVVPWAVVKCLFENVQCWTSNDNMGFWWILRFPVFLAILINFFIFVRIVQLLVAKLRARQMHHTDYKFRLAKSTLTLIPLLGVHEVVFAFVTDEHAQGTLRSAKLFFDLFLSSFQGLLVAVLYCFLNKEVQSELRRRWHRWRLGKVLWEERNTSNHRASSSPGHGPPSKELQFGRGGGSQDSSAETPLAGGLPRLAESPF
Details: not given
`CCCCCCC(Cc1ccc(C(=O)NCCC(=O)O)cc1)C(=O)Nc1ccc(-c2cc3ccccc3o2)cc1` (stereo not given): affinity was put at a Ki of 6 nM.
Same read-out and setting: then `CC(C)(C)c1ccc(C(Cc2ccc(C(=O)NCCC(=O)O)cc2)C(=O)Nc2ccc(-c3cc4ccccc4o3)cc2)cc1` (stereo not given), with 4 nM; and `CC(C)(C)c1ccc(C(Oc2ccc(C(=O)NCC(F)C(=O)O)cc2)C(=O)Nc2ccc(-c3ccccc3)cc2)cc1` (stereo not given), with 26 nM.
With `CCCCCCC(Oc1ccc(C(=O)NCCC(=O)O)cc1)C(=O)Nc1ccc(-c2cc3ccccc3o2)cc1` (stereo not given), the Ki is 3 nM.
On to `CC(C)(C)c1ccc(C(Cc2ccc(C(=O)NCCC(=O)O)cc2)C(=O)Nc2cnc3ccccc3c2)cc1` (stereo not given), for which the Ki came out at 11 nM.
The molecule `CC(C)(C)c1ccc(C(Cc2ccc(C(=O)NCCC(=O)O)cc2)C(=O)Nc2ccc(-c3ccc(Cl)cc3Cl)cc2)cc1` (stereo not given) returned a Ki of 6 nM.
For `CC(C)(C)c1ccc(C(Cc2ccc(C(=O)NCCC(=O)O)cc2)C(=O)Nc2ccc(OC(F)(F)F)cc2)cc1` (stereo not given), the inhibition constant Ki turned out to be 51 nM.
Molecule `CC(C)(C)c1ccc(C(Oc2ccc(C(=O)NCC(O)C(=O)O)cc2)C(=O)Nc2ccc(-c3ccccc3)cc2)cc1` (stereo not given) came in with a Ki of 112 nM.
`CC(C)(C)[C@H]1CC[C@H](N(Cc2ccc(C(=O)NCCC(=O)O)cc2)C(=O)Nc2ccc(OC(F)(F)F)cc2)CC1` yielded a Ki of 63 nM.
On the same count and under the same terms, in the case of `CC(C)(C)c1ccc(C(Cc2ccc(C(=O)NCCC(=O)O)cc2)C(=O)Nc2ccc(COC(F)(F)F)cc2)cc1` (stereo not given) it was 5000 nM; in that of `CCc1cccc(NC(=O)C(Cc2ccc(C(=O)NCCC(=O)O)cc2)c2ccc(C(C)(C)C)cc2)c1` (stereo not given), 80 nM; in that of `CCc1ccc(NC(=O)C(Cc2ccc(C(=O)NCCC(=O)O)cc2)c2ccc(C(C)(C)C)cc2)cc1` (stereo not given), 26 nM.
Same read-out and setting: then `Cc1ccc(N2CCN(C(=O)C(Cc3ccc(C(=O)NCCC(=O)O)cc3)c3ccc(C(C)(C)C)cc3)CC2)cc1` (stereo not given), with 400 nM.
Molecule `CC(C)(C)c1ccc(C(Cc2ccc(C(=O)NCCC(=O)O)cc2)C(=O)Nc2ccc(-c3ccccc3)cc2)cc1` (stereo not given) had a Ki of 11 nM.
Molecule `CC(C)(C)c1ccc(C(Cc2ccc(C(=O)NCCC(=O)O)cc2)C(=O)Nc2ccc(N3CCCCC3)cc2)cc1` (stereo not given) registered a Ki of 73 nM.
Same read-out and setting: then `CCN1CCN(C(=O)C(Cc2ccc(C(=O)NCCC(=O)O)cc2)c2ccc(C(C)(C)C)cc2)CC1` (stereo not given), with more than 5000 nM.
`CC(C)(C)c1ccc(C(Oc2ccc(C(=O)NCCC(=O)O)cc2)C(=O)Nc2ccc(-c3ccccc3)cc2)cc1` (stereo not given) gave a Ki of 9 nM.
In the case of `CC(C)(C)c1ccc(C(Oc2ccc(C(=O)Nc3nn[nH]n3)cc2)C(=O)Nc2ccc(-c3ccccc3)cc2)cc1` (stereo not given), affinity was put at a Ki of 66 nM.
The molecule `CC(C)(C)c1ccc(C(Cc2ccc(C(=O)NCCC(=O)O)cc2)C(=O)Nc2ccc(CO)cc2)cc1` (stereo not given) yielded an inhibition constant Ki of 29 nM.
On the same count and under the same terms, then `CC(C)(C)c1ccc(C(Cc2ccc(C(=O)NCCC(=O)O)cc2)C(=O)Nc2ccc(-n3cccn3)cc2)cc1` (stereo not given), with 70 nM; and `CCCCCCC(Oc1ccc(C(=O)NCCC(=O)O)cc1)C(=O)Nc1ccc(-c2ccc(Cl)cc2Cl)cc1` (stereo not given), with 6 nM.

Another data set concerns Rattus norvegicus. In words: Percent reduction of glucagon induced glucose excursion by the compound after an i.v. dose of 50 mg/kg to rats. In kind it is functional. As to conditions: route intravenous.
`CC(C)(C)c1ccc(C(Cc2ccc(C(=O)NCCC(=O)O)cc2)C(=O)Nc2ccc(-c3cc4ccccc4o3)cc2)cc1` (stereo not given) displayed a Reduction of 50%.
